Laboratory results as given in article PMC5146859, “Phase 1/2 study of pacritinib, a next generation JAK2/FLT3 inhibitor, in myelofibrosis or other myeloid malignancies” (Journal of Hematology & Oncology, 2016).
Marks after values point to notes of the source that are not given here.

Tested on: patients with MF
Test: Phase 2 hematologic parameters and transfusions
Assay type: in vivo, human
Method: At screening/baseline, patients underwent a medical history, physical examination, vital sign assessment, ECOG PS assessment, electrocardiogram, and assessment of hematologic parameters and blood chemistry. Hematology/blood chemistry, physical examinations, and vital sign assessments were performed throughout treatment. Toxicity was assessed using the National Cancer Institute Common Terminology Criteria for Adverse Events (NCIC-CTCAE), version 3.0, with relationship to treatment assigned by the investigator and were recorded from the first dose of pacritinib until 30 days after the last dose. Bone marrow biopsy and/or aspirate samples were drawn at baseline, on day 1 of cycle 4 and cycle 10, as clinically indicated, and at the termination visit. Disease response and progression were determined using the relevant International Working Group (IWG) criteria.

[1] = phase 2, during the study, n = 31

C1=C/COCc2cc(ccc2OCCN2CCCC2)Nc2nccc(n2)-c2cccc(c2)COC/1 [pacritinib, 11-(2-pyrrolidin-1-yl-ethoxy)-14,19-dioxa-5,7,26-triaza-tetracyclo[19.3.1.1(2,6). 1(8,12)]heptacosa-1(25),2(26),3,5,8,10,12(27),16,21,23-decaene]
RBC transfusions, median (phase 2, 16 transfused patients): 11 units | Hematocrit, Median % change from baseline (phase 2, Termination): 0.48% | Hemoglobin, Median % change from baseline (phase 2, Termination): 5.0% | Leukocytes, Median % change from baseline (phase 2, Termination): 15.49% | Lymphocytes, Median % change from baseline (phase 2, Termination): 39.87% | Neutrophils, Median % change from baseline (phase 2, Termination): -9.19% | Platelets, Median % change from baseline (phase 2, Termination): -5.4% | Red blood cells, Median % change from baseline (phase 2, Termination): 0.18% | Hematocrit, Median % change from baseline (phase 2, Week 2): 2.92% | Hemoglobin, Median % change from baseline (phase 2, Week 2): 5.3% | Leukocytes, Median % change from baseline (phase 2, Week 2): -5.93% | Lymphocytes, Median % change from baseline (phase 2, Week 2): 26.93% | Neutrophils, Median % change from baseline (phase 2, Week 2): -16.44% | Platelets, Median % change from baseline (phase 2, Week 2): -1.6% | Red blood cells, Median % change from baseline (phase 2, Week 2): 2.23% | Hematocrit, Median % change from baseline (phase 2, Week 4): 0.00% | Hemoglobin, Median % change from baseline (phase 2, Week 4): 2.2% | Leukocytes, Median % change from baseline (phase 2, Week 4): -26.77% | Lymphocytes, Median % change from baseline (phase 2, Week 4): -6.84% | Neutrophils, Median % change from baseline (phase 2, Week 4): -26.43% | Platelets, Median % change from baseline (phase 2, Week 4): -20.3% | Red blood cells, Median % change from baseline (phase 2, Week 4): 1.41% | Hematocrit, Median % change from baseline (phase 2, Week 6): 0.64% | Hemoglobin, Median % change from baseline (phase 2, Week 6): 9.1% | Leukocytes, Median % change from baseline (phase 2, Week 6): -5.58% | Lymphocytes, Median % change from baseline (phase 2, Week 6): 31.7% | Neutrophils, Median % change from baseline (phase 2, Week 6): -9.32% | Platelets, Median % change from baseline (phase 2, Week 6): -3.6% | Red blood cells, Median % change from baseline (phase 2, Week 6): -1.65% | Hematocrit, Median % change from baseline (phase 2, Week 8): 2.01% | Hemoglobin, Median % change from baseline (phase 2, Week 8): 4.5% | Leukocytes, Median % change from baseline (phase 2, Week 8): -5.50% | Lymphocytes, Median % change from baseline (phase 2, Week 8): 12.65% | Neutrophils, Median % change from baseline (phase 2, Week 8): -19.76% | Platelets, Median % change from baseline (phase 2, Week 8): -4.5% | Red blood cells, Median % change from baseline (phase 2, Week 8): 2.14% | Hematocrit, Median % change from baseline (phase 2, Week 10): -3.57% | Hemoglobin, Median % change from baseline (phase 2, Week 10): 8.2% | Leukocytes, Median % change from baseline (phase 2, Week 10): 7.90% | Lymphocytes, Median % change from baseline (phase 2, Week 10): 52.34% | Platelets, Median % change from baseline (phase 2, Week 10): -3.1% | Red blood cells, Median % change from baseline (phase 2, Week 10): -1.37% | Neutrophils, Median % change from baseline (phase 2, Week 10, n = 19): -1.44^b % | Hematocrit, Median % change from baseline (phase 2, Week 12): -3.31% | Hemoglobin, Median % change from baseline (phase 2, Week 12): -0.5% | Leukocytes, Median % change from baseline (phase 2, Week 12): -21.83% | Lymphocytes, Median % change from baseline (phase 2, Week 12): 20.88% | Neutrophils, Median % change from baseline (phase 2, Week 12): -31.39% | Platelets, Median % change from baseline (phase 2, Week 12): -7.7% | Red blood cells, Median % change from baseline (phase 2, Week 12): -1.81% | Hematocrit, Median % change from baseline (phase 2, Week 16): 3.11% | Hemoglobin, Median % change from baseline (phase 2, Week 16): 8.6% | Leukocytes, Median % change from baseline (phase 2, Week 16): -15.09% | Lymphocytes, Median % change from baseline (phase 2, Week 16): 22.22% | Neutrophils, Median % change from baseline (phase 2, Week 16): -33.04% | Platelets, Median % change from baseline (phase 2, Week 16): -20.1% | Red blood cells, Median % change from baseline (phase 2, Week 16): 6.16% | Hematocrit, Median % change from baseline (phase 2, Week 20): -1.30% | Hemoglobin, Median % change from baseline (phase 2, Week 20): 5.8% | Leukocytes, Median % change from baseline (phase 2, Week 20): -25.83% | Lymphocytes, Median % change from baseline (phase 2, Week 20): 37.07% | Neutrophils, Median % change from baseline (phase 2, Week 20): -32.93% | Platelets, Median % change from baseline (phase 2, Week 20): -11.7% | Red blood cells, Median % change from baseline (phase 2, Week 20): -0.30% | Hematocrit, Median % change from baseline (phase 2, Week 24): 3.01% | Hemoglobin, Median % change from baseline (phase 2, Week 24): 7.3% | Leukocytes, Median % change from baseline (phase 2, Week 24): -30.34% | Lymphocytes, Median % change from baseline (phase 2, Week 24): 44.14% | Neutrophils, Median % change from baseline (phase 2, Week 24): -43.24% | Platelets, Median % change from baseline (phase 2, Week 24): -23.7% | Red blood cells, Median % change from baseline (phase 2, Week 24): 2.46% | Hematocrit, Median % change from baseline (phase 2, Week 36): -2.91% | Hemoglobin, Median % change from baseline (phase 2, Week 36): -0.4% | Leukocytes, Median % change from baseline (phase 2, Week 36): -18.32% | Lymphocytes, Median % change from baseline (phase 2, Week 36): 58.89% | Neutrophils, Median % change from baseline (phase 2, Week 36): -33.96% | Platelets, Median % change from baseline (phase 2, Week 36): -23.4% | Red blood cells, Median % change from baseline (phase 2, Week 36): -3.15% | Hematocrit, Median % change from baseline (phase 2, Week 48): -2.39% | Hemoglobin, Median % change from baseline (phase 2, Week 48): 10.1% | Leukocytes, Median % change from baseline (phase 2, Week 48): -5.13% | Lymphocytes, Median % change from baseline (phase 2, Week 48): 61.70% | Neutrophils, Median % change from baseline (phase 2, Week 48): -28.84% | Platelets, Median % change from baseline (phase 2, Week 48): -16.3% | Red blood cells, Median % change from baseline (phase 2, Week 48): -3.87% | Hematocrit, Median % change from baseline (phase 2, Week 60): 3.70% | Hemoglobin, Median % change from baseline (phase 2, Week 60): 4.7% | Leukocytes, Median % change from baseline (phase 2, Week 60): -28.21% | Lymphocytes, Median % change from baseline (phase 2, Week 60): 40.43% | Neutrophils, Median % change from baseline (phase 2, Week 60): -40.17% | Platelets, Median % change from baseline (phase 2, Week 60): -31.3% | Red blood cells, Median % change from baseline (phase 2, Week 60): 1.48% | Patients who received RBC transfusions [1]: 51.6% | Patients who received platelet transfusions [1]: 9.7% | Platelet transfusions, median (phase 2, three transfused patients): 3 units | Median neutrophil count, span over visits (phase 2, through week 60): 3.83 to 6.00 × 10^9/L | Median platelet count, span over visits (phase 2, through week 60): 89 to 155 × 10^9/L | Patients with hemoglobin levels <8 g/L (phase 2, week 24 (1/20)): 5.0% | Patients with leukocyte counts >25 × 10^9/L (phase 2, week 24 (2/20)): 10.0% | Patients with platelet counts <50 × 10^9/L (phase 2, week 24 (2/20)): 10.0% | Patients with hemoglobin levels <10 g/L (phase 2, week 24 (10/20)): 50.0% | Patients with platelet counts <100 × 10^9/L (phase 2, week 24 (10/20)): 50.0%
